In US11560559B2, “Inducing production of full-length progranulin (GRN) from nucleotides including mutations containing a premature stop codon (PTC)” (University of Kentucky Research Foundation, priority 2018, dated 2023):
Several values for one entry are separate records, joined by “and”; a condition that tells them apart may be missing. Equal values may be shown once. Entries after “also recorded” stand apart in the source; their conditions may differ.

What was measured:
R493X progranulin [1] = assay: Read-through of progranulin R493X nonsense mutation in transfected N2A cells (FLAG Western blot); assay type: cell-based, human; details: for read-through of R493X progranulin (FLAG-positive bands in Western blot): N2A cells transfected with R493X progranulin, two concentrations of each compound; for read-through of R493X progranulin (FLAG-positive bands in Western blot) / read-through, FLAG band intensity as percentage of WT progranulin: 24 hours; for rescued R493X expression / read-through efficiency as % of wild-type progranulin (summary statement): N2A cell culture, conditions not restated; for read-through, FLAG band intensity as percentage of WT progranulin: dose response, maximal concentration 2000 μg/ml
From the text: (§1) The WT progranulin plasmid with a C-terminal FLAG tag (pC-Flag-PGRN-WT) was purchased from Sino Biological Inc. (Cat. HG10826-CF). Three nonsense mutations, Q125X, R229X and R493X, were generated using Q5 site-directed mutagenesis kit (New England Biolabs Inc., Cat. E0554S) to introduce a single nucleotide substitution in the WT progranulin gene (FIG. 1A). The WT progranulin with an N-terminal HA tag (HA-PGRN) was also generated by subcloning using the p3xHA vector (58) and HindIII and BamHI sites.
(§2) N2A cells were maintained in DMEM (Sigma, D5796) supplemented with 10% fetal bovine serum, 100 unit/mL penicillin, and 100 μg/mL streptomycin. Transient transfection was performed using Lipofectamine 2000 (Invitrogen, Life Technologies, Grand Island, N.Y., USA). […] was used for each well of 6-well plate unless otherwise described. After 6 hours transfection, fresh medium containing aminoglycoside at indicated concentrations was added to cells. Cells were applied to following experiments after exposed to drugs at certain time points. All cells were kept in a humidified incubator at 37° C. under 5% CO2/95% air.
Eleven aminoglycosides were tested in this study: G418 (Sigma-Aldrich, Cat. 4727878001), gentamicin (Sigma-Aldrich, Cat. G1397), Kanamycin (Gold Biotechnology, Cat. K-120-25), Streptomycin (Sigma-Aldrich, Cat. S9137), Amikacin (Alta Aesar, Cat. J67496), Tobramycin (Alta Aesar, Cat. J62995), Apramycin (Sigma-Aldrich, Cat. A2024), Neomycin B (Sigma-Aldrich, Cat. N6386), Netilmicin (Alta Aesar, Cat. J66302), Paromomycin (Alta Aesar, Cat. J61274), Sisomicin (Sigma-Aldrich, Cat. S7796). PTC124 was purchased from Med Chem Express (Cat. 775304-57-9).
Cells were lysed in RIPA buffer (Millipore Sigma, Cat. 20-188), centrifuged at 1000 g for 10 mins to remove debris, and then subjected to SDS electrophoresis. After electrophoresis, gels were proceeded for transferring onto nitrocellulose membranes. The membranes were then blocked with 5% milk in TBST (100 mM TRIS-HCl, pH7.5, 0.9% NaCl, 0.1% Tween-20) and incubated with indicated primary antibodies in the same solution. All immunoblotting images were acquired using a BioRad ChemiDoc MP system.
(§3) WT progranulin and three plasmids each with a single nonsense mutation (Q125X, Y229X, or R493X) and a C-terminal Flag tag (FIG. 1A) were constructed. A full-length protein must be generated for the FLAG to be detected, thus a truncated progranulin will not be detected by FLAG Western blotting. If read-through of the progranulin PTC occurs, then progranulin will be detectable by FLAG Western blotting.
R493X, which is the most common nonsense mutation in progranulin-mediated familial FTD (8, 31), was chosen to test whether aminoglycosides could induce read-through. N2A cells were transfected with the indicated plasmid, allowed to recover for 6 hours, and fresh media containing the aminoglycoside at the indicated concentrations was added to the cells for 24 hours. Cells were lysed and analyzed by Western blotting to determine the amount of progranulin protein. […] No signal was detected in lysate from cells transfected with R493X in the absence of any compounds, serving as a negative control. The FLAG-tagged WT progranulin was included as a positive control to define the expected progranulin-FLAG amount. […] It is noted that G418 induced a stronger effect than gentamicin.
A series of G418 and gentamicin concentrations were tested to examine the dose response of the read-through effect. N2A cells were transfected with the R493X progranulin plasmid, allowed to recover for 6 hours, fresh media containing either G418 or gentamicin at 100, 500, 1000 or 2000 μg/ml was added to cells for 24 hours. Cells were then lysed and lysates analyzed by Western blotting. The read-through was dose-dependent with the highest progranulin-FLAG signal corresponding to the highest concentration of compound (FIG. 2A). […]

R493X progranulin mRNA = assay: Full-length progranulin R493X mRNA level in N2A cells (qPCR); assay type: cell-based, human; details: with G418 treatment, qPCR (FIG. 5)
Method: N2A cells were exposed to G418 treatment for 24 hours with indicated concentrations after transfection. Primers specific for full length PGRN mRNA were used for qPCR. All results were normalized to full length WT progranulin in non-treated cells. N.S.: no significance. **, p<0.01; ***, p<0.001.
Total RNA was extracted with Aurum total RNA mini kit (BioRad, Cat. 732-6820), and cDNA was generated with SuperScript III first-strand synthesis system for RT-PCR (Invitrogen, Cat. 18080-051). Quantitive PCR was performed using SYBR Green (ThermoScientific, Cat. 4309155). Beta-actin primers: forward 5′-AGAGCTATGAGCTGCCTGAC-3′ (SEQ ID NO: 1); reverse 5′-GGATGTCAACGTCACACTTC-3′(SEQ ID NO: 2). Primers used for full length progranulin mRNA (including flag encoding sequence) is: forward 5′-CGTGAAGGCTTGATCCTGCGAGA-3′ (SEQ ID NO: 3), reverse 5′-CTTATCGTCATCCTTGTAATC-3′ (SEQ ID NO: 4). Annealing temperature for both beta-actin and progranulin qPCR reaction were 60° C.
In addition to inducing read-through, it has been reported that aminoglycosides can also stabilize mRNAs, which could enhance the read-through effect (35, 36). Therefore, qPCR was used to determine the mRNA levels in the absence and presence of G418.

R493X progranulin [2] = assay: Read-through of progranulin R493X nonsense mutation in transfected N2A cells (FLAG Western blot); assay type: cell-based, human; details: time course, 1000 μg/ml G418, 12 hours
LAMB3 PTC = details: reported (ref. 27); cited from earlier work
Y229X progranulin = assay: Read-through of progranulin Y229X nonsense mutation in transfected N2A cells (FLAG Western blot); assay type: cell-based, human; details: 24 hours
From the text: as §1
(§4) N2A cells were maintained in DMEM (Sigma, D5796) supplemented with 10% fetal bovine serum, 100 unit/mL penicillin, and 100 μg/mL streptomycin. […]
as §3
(§5) Whether G418 or gentamicin could induce read-through of two additional progranulin nonsense mutations (Q125X or Y229X) and a FUS nonsense mutation R495X that has been identified in juvenile patients of the related neurodegenerative disease ALS was also tested.

Q125X progranulin = assay: Read-through of progranulin Q125X nonsense mutation in transfected N2A cells (FLAG Western blot); assay type: cell-based, human; details: 24 hours
From the text: as §1, §4, §3, §5

R495X FUS = assay: Read-through of FUS R495X nonsense mutation in transfected N2A cells (FLAG Western blot); assay type: cell-based; details: three concentrations, 24 hours
Method: Examination of G418 on the R495X mutation of FUS responsible for familial ALS. WT or R495X FUS was tagged with FLAG at the N-terminus. N2A cells were transfected with WT or R495X FUS, allowed to recover, and treated with three concentrations of G418 for 24 hours. Cells were harvested and cell lysates were subjected to SDS-PAGE and Western analysis using anti-FLAG (top) and anti-actin (lower) antibodies. The slightly higher band is WT FUS and the lower band is R495X truncated FUS.
as §2, with “air. […]” for “air.”
as §5

## NC[C@H]1O[C@H](O[C@H]2[C@H](O)[C@@H](O[C@H]3O[C@H](CO)[C@@H](O)[C@H](N)[C@H]3O)[C@H](N)C[C@@H]2N)[C@H](N)C[C@@H]1O [tobramycin]
R493X progranulin [1]
  read-through of R493X progranulin (FLAG-positive bands in Western blot): did not have any detectable read-through effect

## NCC[C@H](O)C(=O)N[C@@H]1C[C@H](N)[C@@H](O[C@H]2O[C@H](CN)[C@@H](O)[C@H](O)[C@H]2O)[C@H](O)[C@H]1O[C@H]1O[C@H](CO)[C@@H](O)[C@H](N)[C@H]1O [amikacin]
R493X progranulin [1]
  read-through of R493X progranulin (FLAG-positive bands in Western blot): did not have any detectable read-through effect

## CN[C@@H]1[C@@H](O)[C@@H](O[C@@H]2[C@@H](O)[C@H](O[C@H]3O[C@H]([C@@H](C)O)[C@@H](O)[C@H](O)[C@H]3N)[C@@H](N)C[C@H]2N)OC[C@]1(C)O [G418]
R493X progranulin [1]
  rescued R493X expression / read-through efficiency as % of wild-type progranulin (summary statement): ~50%
  read-through, FLAG band intensity as percentage of WT progranulin: 33.8% and > 30%
R493X progranulin mRNA
  mRNA level of R493X as % of WT progranulin: ~60%
R493X progranulin [2]
  read-through as % of the WT control: ≈ 5%

## O=C(O)c1cccc(-c2noc(-c3ccccc3F)n2)c1 [PTC124]
R493X progranulin [1]
  read-through of R493X progranulin (FLAG-positive bands in Western blot): did not have any detectable read-through effect

## CN[C@@H]1[C@@H](O)[C@@H](O[C@@H]2[C@@H](O)[C@H](O[C@H]3OC(CN)=CC[C@H]3N)[C@@H](N)C[C@H]2N)OC[C@]1(C)O [sisomicin]
R493X progranulin [1]
  read-through of R493X progranulin (FLAG-positive bands in Western blot): did not have any detectable read-through effect

## NC[C@@H]1O[C@H](O[C@H]2[C@@H](O)[C@H](O[C@@H]3[C@@H](O)[C@H](N)C[C@H](N)[C@H]3O[C@H]3O[C@H](CN)[C@@H](O)[C@H](O)[C@H]3N)O[C@@H]2CO)[C@H](N)[C@@H](O)[C@@H]1O [neomycin B]
R493X progranulin [1]
  read-through of R493X progranulin (FLAG-positive bands in Western blot): did not have any detectable read-through effect

## [H]/N=C(/N)N[C@H]1[C@H](O)[C@@H](O)[C@H](O[C@@H]2O[C@@H](C)[C@](O)(C=O)[C@H]2O[C@@H]2O[C@@H](CO)[C@H](O)[C@@H](O)[C@@H]2NC)[C@@H](N/C(N)=N\[H])[C@@H]1O [streptomycin]
R493X progranulin [1]
  read-through of R493X progranulin (FLAG-positive bands in Western blot): did not have any detectable read-through effect

## gentamicin
LAMB3 PTC
  read-through of the LAMB3 PTC: 30-50%
R493X progranulin [1]
  rescued R493X expression / read-through efficiency as % of wild-type progranulin (summary statement): less than 10%
  read-through of R493X progranulin (FLAG-positive bands in Western blot): induced FLAG bands; also recorded: induced read-through
  read-through, FLAG band intensity as percentage of WT progranulin: 8.6%
Y229X progranulin
  read-through of Y229X progranulin (full-length protein by FLAG antibody): did not induce read-through
Y229X progranulin; listed as Gentamicin
  read-through of Y229X progranulin (full-length protein by FLAG antibody): no readthrough effect
Q125X progranulin
  read-through of Q125X progranulin (full-length protein by FLAG antibody): did not induce read-through
Q125X progranulin; listed as Gentamicin
  read-through of Q125X progranulin (full-length protein by FLAG antibody): no readthrough effect
R495X FUS
  read-through of FUS R495X (full-length protein): did not induce read-through
R495X FUS; listed as Gentamicin
  read-through of FUS R495X (full-length protein): did not induce readthrough

## NC[C@@H]1O[C@H](O[C@H]2[C@@H](O)[C@H](O[C@@H]3[C@@H](O)[C@H](N)C[C@H](N)[C@H]3O[C@H]3O[C@H](CO)[C@@H](O)[C@H](O)[C@H]3N)O[C@@H]2CO)[C@H](N)[C@@H](O)[C@@H]1O [paromomycin]
R493X progranulin [1]
  read-through of R493X progranulin (FLAG-positive bands in Western blot): did not have any detectable read-through effect

## CCN[C@@H]1C[C@H](N)[C@@H](O[C@H]2OC(CN)=CC[C@H]2N)[C@H](O)[C@H]1O[C@H]1OC[C@](C)(O)[C@H](NC)[C@H]1O [netilmicin]
R493X progranulin [1]
  read-through of R493X progranulin (FLAG-positive bands in Western blot): did not have any detectable read-through effect

## CN[C@@H]1[C@@H](O[C@H]2O[C@H](CO)[C@@H](N)[C@H](O)[C@H]2O)OC2C[C@@H](N)[C@@H](O[C@H]3[C@H](O)[C@@H](O)[C@H](N)C[C@@H]3N)OC2[C@@H]1O (some centres unmarked) [apramycin]
R493X progranulin [1]
  read-through of R493X progranulin (FLAG-positive bands in Western blot): did not have any detectable read-through effect
